Data taken from publication PMC7419507, “In vitro Cas9-assisted editing of modular polyketide synthase genes to produce desired natural product derivatives” (Nature Communications, 2020).
Where “and” joins values, the source holds several entries; their conditions need not be identical. Equal values may be shown once.

Columns and labels:
[1] = Cytotoxicity assay (CellTiter-Glo, 72 h), MESO-1; type: cell-based; conditions: human, MESO-1 malignant pleural mesothelioma cells, raw replicate data, read-out: MESO1 viability (%)
Method in brief: (§1)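 Following 4 h attachment at 1000 cells/well, the three lines received serially halved compound doses (DMSO 0.5%) for 72 h at 37 °C under 5% CO2, with cell viability then determined by CellTiter-Glo.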

[2] = tested on: malignant pleural mesothelioma MESO-1 cells; assay: Cytotoxicity assay (CellTiter-Glo, 72 h), MESO-1; type: cell-based; conditions: raw replicate data
Method in brief: as §1

[3] = tested on: Jurkat, SKOV-3 and MESO-1 cells; assay: Cytotoxicity assay, statements for all tested cell lines together; type: cell-based; conditions: Jurkat, SKOV-3 and MESO-1 cells, 72 h
Method in brief: as §1

[4] = tested on: human ovarian adenocarcinoma SKOV-3 cells; assay: Cytotoxicity assay (CellTiter-Glo, 72 h), SKOV-3; type: cell-based; conditions: raw replicate data
Method in brief: as §1

[5] = Cytotoxicity assay (CellTiter-Glo, 72 h), SKOV-3; type: cell-based, human; conditions: human, raw replicate data, read-out: SKOV3 viability (%)
Method in brief: as §1

[6] = target: T1, FKBP12 and mTOR (Homo sapiens, UniProt P42345+P62942); assay: Fluoppi analysis: induction of FKBP12-mTOR complex formation in transfected HeLa cells; type: cell-based; conditions: for Foci intensity: raw data, one replicate per line
T1 construct: host or cells: HeLa cells
T1 sequence (P42345 2025-2114 limits assumed): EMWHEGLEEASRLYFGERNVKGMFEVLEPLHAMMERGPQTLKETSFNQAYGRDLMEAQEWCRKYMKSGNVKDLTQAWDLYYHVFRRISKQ
T1 sequence (P62942 whole entry): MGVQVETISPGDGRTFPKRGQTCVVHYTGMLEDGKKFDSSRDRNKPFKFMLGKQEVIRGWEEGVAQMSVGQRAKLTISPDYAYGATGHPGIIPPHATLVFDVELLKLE
Method in brief: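 Complex formation read as fluorescent foci: foci intensity over total per-cell intensity, imaged (×20, 9 fields/well) after fixation and Hoechst stain, giving EC50. Cells: HeLa transiently expressing hAG-mTOR and Ash-FKBP12, exposed to compound concentrations for 1 h at 37 °C.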

PPI-inducing (binding enhancing) activity between FKBP12 and mTOR compared with rapamycin (1), in words ([6]; Fluoppi): relatively weaker activities | EC50 ([6]; Fluoppi, HeLa cells, 1 h treatment, three independent biological replicates, read-out: EC50, induction of the formation of FKBP-mTOR complex): 73 nM | Foci intensity ([6]; conc 9.53674e-5 uM): 0.02036 and 0.008593 and 0.006167 | Foci intensity ([6]; conc 0.000190735 uM): 0.01432 and 0.008145 and 0.01977 | Foci intensity ([6]; conc 0.00038147 uM): 0.01002 and 0.01191 and 0.006949 | Foci intensity ([6]; conc 0.000762939 uM): 0.02361 and 0.0319 and 0.02031 | Foci intensity ([6]; conc 0.00152588 uM): 0.02629 and 0.01654 and 0.01268 | Foci intensity ([6]; conc 0.00305176 uM): 0.02214 and 0.02006 and 0.01134 | Foci intensity ([6]; conc 0.00610352 uM): 0.03874 and 0.01998 and 0.01509 | Foci intensity ([6]; conc 0.012207 uM): 0.01596 and 0.01655 and 0.01094 | Foci intensity ([6]; conc 0.0244141 uM): 0.04032 and 0.02924 and 0.04626 | Foci intensity ([6]; conc 0.0488281 uM): 0.1206 and 0.1281 and 0.1053 | Foci intensity ([6]; conc 0.0976562 uM): 0.3145 and 0.2601 and 0.1852 | Foci intensity ([6]; conc 0.195312 uM): 0.3854 and 0.3277 and 0.371 | Foci intensity ([6]; conc 0.390625 uM): 0.4069 and 0.3307 and 0.3864 | Foci intensity ([6]; conc 0.78125 uM): 0.4181 and 0.3809 and 0.3423 | Foci intensity ([6]; conc 1.5625 uM): 0.3991 and 0.3532 and 0.4458 | Foci intensity ([6]; conc 3.125 uM): 0.3573 and 0.4306 and 0.409 | Foci intensity ([6]; conc 6.25 uM): 0.3647 and 0.3805 and 0.3539 | Foci intensity ([6]; conc 12.5 uM): 0.3743 and 0.3421 and 0.396 | Foci intensity ([6]; conc 25 uM): 0.3317 and 0.3763 and 0.373 | Foci intensity ([6]; conc 50 uM): 0.3749 and 0.3065 and 0.4374
SMILES: COC1CC2CCC(C)C(O)(O2)C(=O)C(=O)N2CCCCC2C(=O)OC(C(C)CC2CCC(O)C(OC)C2)CC(O)CC(=O)C(C)C=C(C)C(O)CC(=O)C(C)CC(C)C=CC=CC=C1C (stereo not shown) [Compound 13]
viability at 72 h, 9.53674e-05 uM ([1]; conc 9.53674e-5 uM): 107% | viability at 72 h, 0.000190735 uM ([1]; conc 0.000190735 uM): 109% | viability at 72 h, 0.00038147 uM ([1]; conc 0.00038147 uM): 103% | viability at 72 h, 0.000762939 uM ([1]; conc 0.000762939 uM): 96.5% | viability at 72 h, 0.00152588 uM ([1]; conc 0.00152588 uM): 103% | viability at 72 h, 0.00305176 uM ([1]; conc 0.00305176 uM): 101% | viability at 72 h, 0.00610352 uM ([1]; conc 0.00610352 uM): 108% | viability at 72 h, 0.012207 uM ([1]; conc 0.012207 uM): 101% | viability at 72 h, 0.0244141 uM ([1]; conc 0.0244141 uM): 95.9% | viability at 72 h, 0.0488281 uM ([1]; conc 0.0488281 uM): 92.5% | viability at 72 h, 0.0976562 uM ([1]; conc 0.0976562 uM): 82% | viability at 72 h, 0.195312 uM ([1]; conc 0.195312 uM): 74.6% | viability at 72 h, 0.390625 uM ([1]; conc 0.390625 uM): 77.6% | viability at 72 h, 0.78125 uM ([1]; conc 0.78125 uM): 68.5% | viability at 72 h, 1.5625 uM ([1]; conc 1.5625 uM): 71.4% | viability at 72 h, 3.125 uM ([1]; conc 3.125 uM): 70.6% | viability at 72 h, 6.25 uM ([1]; conc 6.25 uM): 68.1% | viability at 72 h, 12.5 uM ([1]; conc 12.5 uM): 69.4% | viability at 72 h, 25 uM ([1]; conc 25 uM): 61.7% | viability at 72 h, 50 uM ([1]; conc 50 uM): 32.5% | MESO1 viability (%) ([2]; conc 9.53674e-5 uM): 98.4% and 101.6% | MESO1 viability (%) ([2]; conc 0.000190735 uM): 99.7% and 102.2% | MESO1 viability (%) ([2]; conc 0.00038147 uM): 106.9% and 102.5% | MESO1 viability (%) ([2]; conc 0.000762939 uM): 98.2% and 93.2% | MESO1 viability (%) ([2]; conc 0.00152588 uM): 104.8% and 103.9% | MESO1 viability (%) ([2]; conc 0.00305176 uM): 98.6% and 103.9% | MESO1 viability (%) ([2]; conc 0.00610352 uM): 105.0% and 100.2% | MESO1 viability (%) ([2]; conc 0.012207 uM): 91.1% | MESO1 viability (%) ([2]; conc 0.0244141 uM): 101.5% and 98.1% | MESO1 viability (%) ([2]; conc 0.0488281 uM): 89.5% and 85.7% | MESO1 viability (%) ([2]; conc 0.0976562 uM): 82.3% and 85.5% | MESO1 viability (%) ([2]; conc 0.195312 uM): 72.4% and 76.8% | MESO1 viability (%) ([2]; conc 0.390625 uM): 77.4% and 73.9% | MESO1 viability (%) ([2]; conc 0.78125 uM): 67.0% and 66.3% | MESO1 viability (%) ([2]; conc 1.5625 uM): 65.2% and 74.0% | MESO1 viability (%) ([2]; conc 3.125 uM): 66.5% and 63.4% | MESO1 viability (%) ([2]; conc 6.25 uM): 73.7% and 75.2% | MESO1 viability (%) ([2]; conc 12.5 uM): 72.5% and 66.5% | MESO1 viability (%) ([2]; conc 25 uM): 64.3% and 66.3% | MESO1 viability (%) ([2]; conc 50 uM): 29.9% and 28.1% | Effect on cell viability, in words [3]: slightly suppressed the cell viabilities | SKOV3 viability (%) ([4]; conc 9.53674e-5 uM): 107.4% and 106.9% | SKOV3 viability (%) ([4]; conc 0.000190735 uM): 98.8% and 103.7% | SKOV3 viability (%) ([4]; conc 0.00038147 uM): 108.6% and 110.4% | SKOV3 viability (%) ([4]; conc 0.000762939 uM): 108.3% and 103.9% | SKOV3 viability (%) ([4]; conc 0.00152588 uM): 101.0% and 99.9% | SKOV3 viability (%) ([4]; conc 0.00305176 uM): 105.3% and 103.9% | SKOV3 viability (%) ([4]; conc 0.00610352 uM): 110.1% and 106.3% | SKOV3 viability (%) ([4]; conc 0.012207 uM): 101.2% and 96.8% | SKOV3 viability (%) ([4]; conc 0.0244141 uM): 104.0% | SKOV3 viability (%) ([4]; conc 0.0488281 uM): 98.0% and 96.8% | SKOV3 viability (%) ([4]; conc 0.0976562 uM): 97.2% and 95.3% | SKOV3 viability (%) ([4]; conc 0.195312 uM): 69.7% and 74.1% | SKOV3 viability (%) ([4]; conc 0.390625 uM): 69.6% and 63.1% | SKOV3 viability (%) ([4]; conc 0.78125 uM): 63.6% and 66.9% | SKOV3 viability (%) ([4]; conc 1.5625 uM): 66.7% | SKOV3 viability (%) ([4]; conc 3.125 uM): 68.3% and 74.5% | SKOV3 viability (%) ([4]; conc 6.25 uM): 79.3% and 78.5% | SKOV3 viability (%) ([4]; conc 12.5 uM): 75.9% | SKOV3 viability (%) ([4]; conc 25 uM): 73.5% and 81.4% | SKOV3 viability (%) ([4]; conc 50 uM): 55.5% and 58.9% | viability at 72 h, 9.53674e-05 uM ([5]; SKOV-3 cells (ovarian adenocarcinoma), conc 9.53674e-5 uM): 101% | viability at 72 h, 0.000190735 uM ([5]; SKOV-3 cells (ovarian adenocarcinoma), conc 0.000190735 uM): 105% | viability at 72 h, 0.00038147 uM ([5]; SKOV-3 cells (ovarian adenocarcinoma), conc 0.00038147 uM): 103% | viability at 72 h, 0.000762939 uM ([5]; SKOV-3 cells (ovarian adenocarcinoma), conc 0.000762939 uM): 104% | viability at 72 h, 0.00152588 uM ([5]; SKOV-3 cells (ovarian adenocarcinoma), conc 0.00152588 uM): 106% | viability at 72 h, 0.00305176 uM ([5]; SKOV-3 cells (ovarian adenocarcinoma), conc 0.00305176 uM): 104% | viability at 72 h, 0.00610352 uM ([5]; SKOV-3 cells (ovarian adenocarcinoma), conc 0.00610352 uM): 104% | viability at 72 h, 0.012207 uM ([5]; SKOV-3 cells (ovarian adenocarcinoma), conc 0.012207 uM): 100% | viability at 72 h, 0.0244141 uM ([5]; SKOV-3 cells (ovarian adenocarcinoma), conc 0.0244141 uM): 97.8% | viability at 72 h, 0.0488281 uM ([5]; SKOV-3 cells (ovarian adenocarcinoma), conc 0.0488281 uM): 100% | viability at 72 h, 0.0976562 uM ([5]; SKOV-3 cells (ovarian adenocarcinoma), conc 0.0976562 uM): 93.5% | viability at 72 h, 0.195312 uM ([5]; SKOV-3 cells (ovarian adenocarcinoma), conc 0.195312 uM): 80.1% | viability at 72 h, 0.390625 uM ([5]; SKOV-3 cells (ovarian adenocarcinoma), conc 0.390625 uM): 72.3% | viability at 72 h, 12.5 uM ([5]; SKOV-3 cells (ovarian adenocarcinoma), conc 12.5 uM): 74% | viability at 72 h, 25 uM ([5]; SKOV-3 cells (ovarian adenocarcinoma), conc 25 uM): 76.6% | viability at 72 h, 50 uM ([5]; SKOV-3 cells (ovarian adenocarcinoma), conc 50 uM): 61.1% | viability at 72 h, 0.78125 uM ([5]; SKOV-3 ovarian adenocarcinoma cells, conc 0.78125 uM): 70.5% | viability at 72 h, 1.5625 uM ([5]; SKOV-3 ovarian adenocarcinoma cells, conc 1.5625 uM): 74.6% | viability at 72 h, 3.125 uM ([5]; SKOV-3 ovarian adenocarcinoma cells, conc 3.125 uM): 67.3% | viability at 72 h, 6.25 uM ([5]; SKOV-3 ovarian adenocarcinoma cells, conc 6.25 uM): 76.1%
